This passage reports IC50 results from paper PMC7317179 (The Korean Journal of Physiology & Pharmacology : …, 2020).

This experiment addresses T1, anoctamin-1 (hANO1, TMEM16A) (Homo sapiens, UniProt Q5XXA6).
T1 sequence (Q5XXA6 1-986): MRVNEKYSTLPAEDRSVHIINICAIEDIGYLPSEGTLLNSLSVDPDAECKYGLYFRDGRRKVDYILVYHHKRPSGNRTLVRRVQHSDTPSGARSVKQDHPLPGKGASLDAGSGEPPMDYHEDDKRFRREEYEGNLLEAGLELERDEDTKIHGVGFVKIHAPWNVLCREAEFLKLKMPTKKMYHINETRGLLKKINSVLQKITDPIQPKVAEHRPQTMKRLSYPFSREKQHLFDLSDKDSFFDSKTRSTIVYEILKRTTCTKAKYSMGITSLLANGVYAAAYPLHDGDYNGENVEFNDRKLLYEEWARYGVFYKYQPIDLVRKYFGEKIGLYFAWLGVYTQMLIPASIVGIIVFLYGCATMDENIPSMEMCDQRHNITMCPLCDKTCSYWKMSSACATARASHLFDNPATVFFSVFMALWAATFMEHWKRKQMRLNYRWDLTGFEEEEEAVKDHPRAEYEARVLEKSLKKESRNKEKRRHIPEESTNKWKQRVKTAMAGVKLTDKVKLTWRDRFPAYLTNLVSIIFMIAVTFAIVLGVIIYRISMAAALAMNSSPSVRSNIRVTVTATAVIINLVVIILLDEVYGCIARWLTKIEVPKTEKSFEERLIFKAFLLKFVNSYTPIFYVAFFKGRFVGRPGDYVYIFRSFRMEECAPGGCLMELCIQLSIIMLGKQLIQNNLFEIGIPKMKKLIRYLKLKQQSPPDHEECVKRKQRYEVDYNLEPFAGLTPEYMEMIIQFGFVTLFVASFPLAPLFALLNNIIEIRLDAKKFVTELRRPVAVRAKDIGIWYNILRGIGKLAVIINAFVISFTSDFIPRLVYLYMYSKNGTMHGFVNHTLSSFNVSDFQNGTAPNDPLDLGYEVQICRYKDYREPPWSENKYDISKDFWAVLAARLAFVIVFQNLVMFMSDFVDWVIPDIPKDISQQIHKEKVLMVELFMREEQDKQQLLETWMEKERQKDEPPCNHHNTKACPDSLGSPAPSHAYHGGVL
As to the kind of experiment: whole-cell patch clamp, hANO1-HEK293T. The format is cell-based. For orientation: In patch-clamp work, channel activity is measured electrically.

`O=c1cc(-c2ccc(O)c(O)c2)oc2cc(O)cc(O)c12` [compound 5, luteolin] yielded an IC50 of 27.9 ± 1.61 µM.

What is called IC50 is the concentration that gives 50% inhibition.
